Test results: patent US8148410B2, “Thiophene derivatives as agonists of S1P1/EDG1” (Actelion Pharmaceuticals Ltd., priority 2007, dated 2012)

The compounds below were run against recombinant human S1P1 receptor (Homo sapiens, UniProt P21453) (assay: GTPγS assay to determine EC50 values). Conditions: agonist concentration inducing 50% of maximal specific 35S-GTPγS binding; membranes of CHO cells expressing recombinant human S1P1.
Sequence of recombinant human S1P1 receptor (P21453 whole entry): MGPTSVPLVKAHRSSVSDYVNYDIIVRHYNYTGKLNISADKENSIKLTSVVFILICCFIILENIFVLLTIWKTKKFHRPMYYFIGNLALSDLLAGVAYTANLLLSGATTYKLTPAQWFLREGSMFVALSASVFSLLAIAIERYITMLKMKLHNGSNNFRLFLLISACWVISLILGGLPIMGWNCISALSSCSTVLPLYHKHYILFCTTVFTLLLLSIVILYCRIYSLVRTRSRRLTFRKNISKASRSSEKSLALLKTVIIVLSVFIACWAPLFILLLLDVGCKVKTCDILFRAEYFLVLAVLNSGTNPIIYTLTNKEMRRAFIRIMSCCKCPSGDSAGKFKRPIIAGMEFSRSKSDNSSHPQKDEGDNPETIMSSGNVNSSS
Format: biochemical
Protocol: GTPγS Assay to Determine EC50 Values
GTPγS binding assays are performed in 96 well microtiter plates (Nunc, 442587) in a final volume of 200 μl, using membrane preparations of CHO cells expressing recombinant human S1P1 receptor. Assay conditions are 20 mM Hepes (Fluka, 54461), 100 mM NaCl (Fluka, 71378), 5 mM MgCl2 (Fluka, 63064), 0.1% BSA (Calbiochem, 126609), 1 μM GDP (Sigma, G-7127), 2.5% DMSO (Fluka, 41644), 50 pM ^35S-GTPγS (Amersham Biosciences, SJ1320). The pH is 7.4. Test compounds are dissolved and diluted in 100% DMSO and pre-incubated at room temperature for 30 min in 150 μl of the above assay buffer, in the absence of ^35S-GTPγS. After addition of 50 μl of ^35S-GTPγS, the assay is incubated for 1 h at rt. The assay is terminated by transfer of the reaction mixture to a Multiscreen plate (Millipore, MAHFC1H60) using a cell harvester from Packard Biosciences, and the plates are washed with ice-cold 10 mM Na2HPO4/NaH2PO4 (70%/30%), dried, sealed at the bottom and, after addition of 25 μl MicroScint20 (Packard Biosciences, order #6013621), sealed on the top. Membrane-bound ^35S-GTPγS is measured with a TopCount from Packard Biosciences.
Specific binding is determined by subtracting non-specific binding from maximal binding. Maximal binding is the amount of cpm bound to the Multiscreen plate in the presence of 10 μM of S1P. Non-specific binding is the amount of binding in the absence of an agonist in the assay.
Work on `CNCc1sc(-c2nc(-c3cc(C)c(OCC(O)CNC(=O)CO)c(C)c3)no2)cc1C` (racemic) [Example 21] yielded an EC50 of 3.8 nM.
In the case of `Cc1cc(-c2nc(-c3cc(C)c(OCC(O)CNC(=O)CO)c(C)c3)no2)sc1CNC(C)C` (racemic) [Example 24], the EC50 is reported as 11 nM.
`CCCN(C)Cc1sc(-c2nc(-c3cc(C)c(OCC(O)CNC(=O)CO)c(C)c3)no2)cc1C` (racemic) [Example 28] was tested, and the EC50 was 0.2 nM.
In the case of `Cc1cc(-c2nc(-c3cc(C)c(OCC(O)CNC(=O)CO)c(C)c3)no2)sc1CN(C)CCO` (racemic) [Example 30], the EC50 is reported as 10.2 nM.
With `CCN(CCO)Cc1sc(-c2nc(-c3cc(C)c(OCC(O)CNC(=O)CO)c(C)c3)no2)cc1C` (racemic) [Example 31] the EC50 was 8.1 nM.
For `Cc1cc(-c2nc(-c3cc(C)c(OCC(O)CNC(=O)CO)c(C)c3)no2)sc1CN1CCCC1` (racemic) [Example 32], the EC50 was 11.2 nM.
Work on `Cc1cc(-c2nc(-c3cc(C)c(OCC(O)CNC(=O)CO)c(C)c3)no2)sc1CN1CCCCC1` (racemic) [Example 33] yielded an EC50 of 9.8 nM.
For `CCN(CC)Cc1sc(-c2nc(-c3cc(C)c(CCC(=O)O)c(C)c3)no2)cc1C` [Example 44], the EC50 was 12.1 nM.
`CCc1cc(-c2noc(-c3cc(C)c(CN(C)CC)s3)n2)cc(C)c1OC[C@@H](O)CNC(=O)CO` [Example 52] was tested, and the EC50 was 2.2 nM.
`CCCCN(C)Cc1sc(-c2nc(-c3cc(C)c(OC[C@@H](O)CNC(=O)CO)c(CC)c3)no2)cc1C` [Example 54] was tested, and the EC50 was 2 nM.
`CCc1cc(-c2noc(-c3cc(C)c(CN(CC)CC)s3)n2)cc(C)c1OC[C@@H](O)CNC(=O)CO` [Example 56] was tested, and the EC50 was 2.5 nM.
For `CCCN(CC)Cc1sc(-c2nc(-c3cc(C)c(OC[C@@H](O)CNC(=O)CO)c(CC)c3)no2)cc1C` [Example 57], the EC50 was 2.8 nM.
Compound `CCc1cc(-c2noc(-c3cc(C)c(CN(CC)C(C)C)s3)n2)cc(C)c1OC[C@@H](O)CNC(=O)CO` [Example 58] has an EC50 of 3.3 nM.
For `CCCCN(CC)Cc1sc(-c2nc(-c3cc(C)c(OC[C@@H](O)CNC(=O)CO)c(CC)c3)no2)cc1C` [Example 59], the EC50 was 7 nM.
Work on `CCc1cc(-c2nc(-c3cc(C)c(OC[C@H](O)CO)c(CC)c3)no2)sc1CN(C)C` [Example 81] yielded an EC50 of 2.6 nM.
Work on `CCCN(C)Cc1sc(-c2nc(-c3cc(C)c(OC[C@@H](O)CNC(=O)CO)c(CC)c3)no2)cc1CC` [Example 84] yielded an EC50 of 0.8 nM.
With `CCCN(C)Cc1sc(-c2nc(-c3cc(C)c(CCC(=O)O)c(CC)c3)no2)cc1CC` [Example 86] the EC50 was 9.1 nM.
Compound `Cc1cc(-c2nc(-c3cc(C)c(OC[C@@H](O)CNC(=O)CO)c(C)c3)no2)sc1CN(C)C` [Example 87, N-((2S)-3-{4-[5-(5-Dimethylaminomethyl-4-methyl-thiophen-2-yl)-[1,2,4]oxadiazol-3-yl]-2,6-dimethyl-phenoxy}-2-hydroxy-propyl)-2-hydroxy-acetamide] has an EC50 of 0.6 nM.
With `CCN(Cc1sc(-c2nc(-c3cc(C)c(OC[C@@H](O)CNC(=O)CO)c(C)c3)no2)cc1C)C(C)C` [Example 92, N-{(2S)-3-[4-(5-{5-[(Ethyl-isopropyl-amino)-methyl]-4-methyl-thiophen-2-yl}-[1,2,4]oxadiazol-3-yl)-2,6-dimethyl-phenoxy]-2-hydroxy-propyl}-2-hydroxy-acetamide] the EC50 was 0.5 nM.
Compound `CCCN(C)Cc1sc(-c2nc(-c3cc(C)c(CCC(=O)NCC(=O)OC)c(CC)c3)no2)cc1C` [Example 98] has an EC50 of 17.3 nM.
`CCc1cc(-c2noc(-c3cc(C)c(CN(CC)CC)s3)n2)cc(C)c1CCC(=O)NCC(=O)O` [Example 106] was tested, and the EC50 was 8.6 nM.
Compound `CCCN(C)Cc1sc(-c2nc(-c3cc(C)c(CCC(=O)NCCC(=O)O)c(CC)c3)no2)cc1C` [Example 115] has an EC50 of 10.5 nM.
`CCCN(CC)Cc1sc(-c2nc(-c3cc(C)c(CCC(=O)NCCC(=O)O)c(CC)c3)no2)cc1C` [Example 119] gave an EC50 of 2.1 nM.
Work on `CCc1cc(-c2noc(-c3cc(C)c(CN(CC)CC)s3)n2)cc(C)c1CCC(=O)NCCO` [Example 136] yielded an EC50 of 18.5 nM.
`CCc1cc(-c2nc(-c3cc(C)c(CN(CC)CC)s3)no2)cc(C)c1OC[C@@H](O)CNC(=O)CO` [Example 149] showed an EC50 of 1.6 nM.
Work on `CCc1cc(-c2nnc(-c3cc(C)c(CN(C)C)s3)o2)cc(C)c1OC[C@@H](O)CNC(=O)CO` [Example 150, N-((2S)-3-{4-[5-(5-Dimethylaminomethyl-4-methyl-thiophen-2-yl)-[1,3,4]oxadiazol-2-yl]-2-ethyl-6-methyl-phenoxy}-2-hydroxy-propyl)-2-hydroxy-acetamide] yielded an EC50 of 5.4 nM.
Compound `CCN(CC)Cc1sc(-c2nc(-c3cc(C)c(N)c(Cl)c3)no2)cc1C` [Example 187, 2-Chloro-4-[5-(5-diethylaminomethyl-4-methyl-thiophen-2-yl)-[1,2,4]oxadiazol-3-yl]-6-methyl-phenylamine] has an EC50 of 22 nM.
In the case of `CCN(CC)Cc1sc(-c2nc(-c3cc(C)c(OC[C@@H](O)CNC(=O)CO)c(OC)c3)no2)cc1C` [Example 194, N-((2S)-3-{4-[5-(5-Diethylaminomethyl-4-methyl-thiophen-2-yl)-[1,2,4]oxadiazol-3-yl]-2-methoxy-6-methyl-phenoxy}-2-hydroxy-propyl)-2-hydroxy-acetamide], the EC50 is reported as 2.5 nM.
Compound `CCN(CC)Cc1sc(-c2nc(-c3cc(C)c(OC[C@@H](O)CNC(=O)CO)c(Cl)c3)no2)cc1C` [Example 195, N-((2S)-3-{4-[5-(5-Diethylaminomethyl-4-methyl-thiophen-2-yl)-[1,2,4]oxadiazol-3-yl]-2-chloro-6-methyl-phenoxy}-2-hydroxy-propyl)-2-hydroxy-acetamide] has an EC50 of 0.2 nM.
`CCN(CC)Cc1sc(-c2nc(-c3ccc(OCC(O)CNC(=O)CO)cc3C)no2)cc1C` (stereo not shown) [Example 196, N-(3-{4-[5-(5-Diethylaminomethyl-4-methyl-thiophen-2-yl)-[1,2,4]oxadiazol-3-yl]-3-methyl-phenoxy}-2-hydroxy-propyl)-2-hydroxy-acetamide] gave an EC50 of 13 nM.
Compound `CCN(CC)Cc1sc(-c2nc(-c3cc(C)c(OC[C@@H](O)CO)c(Cl)c3)no2)cc1C` [Example 198, (2S)-3-{2-Chloro-4-[5-(5-diethylaminomethyl-4-methyl-thiophen-2-yl)-[1,2,4]oxadiazol-3-yl]-6-methyl-phenoxy}-propane-1,2-diol] has an EC50 of 2.1 nM.
`CCc1cc(-c2noc(-c3cc(C)c(CN(CC)CC)s3)n2)cc(C)c1OC[C@@H](O)CN1CCC(C(=O)O)C1` (stereo partly drawn) [Example 205, 1-((2S)-3-{4-[5-(5-Diethylaminomethyl-4-methyl-thiophen-2-yl)-[1,2,4]oxadiazol-3-yl]-2-ethyl-6-methyl-phenoxy}-2-hydroxy-propyl)-pyrrolidine-3-carboxylic acid] was tested, and the EC50 was 18.4 nM.
For `CCc1cc(-c2noc(-c3cc(C)c(CN(CC)CC)s3)n2)cc(C)c1OC[C@@H](O)CNCCO` [Example 210], the EC50 was 9.6 nM.
In the case of `CCc1cc(-c2noc(-c3cc(C)c(CN(CC)CC)s3)n2)cc(C)c1OC[C@@H](O)CNC(CO)CO` [Example 214], the EC50 is reported as 1.7 nM.
For `CCc1cc(-c2noc(-c3cc(C)c(CN(CC)CC)s3)n2)cc(C)c1OC[C@@H](O)CNCC(=O)O` [Example 220], the EC50 was 3.4 nM.
With `CCc1cc(-c2noc(-c3cc(C)c(CN(CC)CC)s3)n2)cc(C)c1OC[C@@H](O)CNC(=O)CCO` [Example 223] the EC50 was 6.2 nM.
`CCc1cc(-c2noc(-c3cc(C)c(CN(CC)CC)s3)n2)cc(C)c1OC[C@@H](O)CNC(=O)CN` [Example 225] was tested, and the EC50 was 1.1 nM.
Compound `CCc1cc(-c2noc(-c3cc(C)c(CN(CC)CC)s3)n2)cc(C)c1OC[C@@H](O)CNC(=O)CNC` [Example 226] has an EC50 of 3.5 nM.

These compounds were tested on circulating lymphocytes (assay: Assessment of in vivo efficacy: circulating lymphocytes after oral administration). Conditions: 3 h after oral administration of 10 mg/kg, compared to animals treated with vehicle only; mean ± SEM.
Set-up: species or system normotensive male Wistar rats
Protocol: Assessment of In Vivo Efficacy
The efficacy of the compounds of Formula (I) is assessed by measuring the circulating lymphocytes after oral administration of 3 to 30 mg/kg of a compound of Formula (I) to normotensive male Wistar rats. The animals are housed in climate-controlled conditions with a 12 h-light/dark cycle, and have free access to normal rat chow and drinking water. Blood is collected before and 3, 6 and 24 h after drug administration. Full blood is subjected to hematology using Advia Hematology system (Bayer Diagnostics, Zürich, Switzerland).
All data are presented as mean±SEM. Statistical analyses are performed by analysis of variance (ANOVA) using Statistica (StatSoft) and the Student-Newman-Keuls procedure for multiple comparisons. The null hypothesis is rejected when p<0.05.
Compound `CCCN(C)Cc1sc(-c2nc(-c3cc(C)c(OCC(O)CNC(=O)CO)c(C)c3)no2)cc1C` (racemic) [Example 28] has a Lymphocyte counts of −68 ± 3%.
In the case of `CCc1cc(-c2noc(-c3cc(C)c(CN(CC)CC)s3)n2)cc(C)c1OC[C@@H](O)CNC(=O)CO` [Example 56], the Lymphocyte counts is reported as −68 ± 1%.
